Reference: patent US20250057764A1, “COMPOSITIONS, METHODS AND SYSTEMS FOR AEROSOL DRUG DELIVERY” (ASTRAZENECA AB, priority 2021, published 2025)
Counter-ions that a name gives are not always drawn. Like-named read-outs stand apart in the source and are kept apart here.

Tests used:
[1] = Particle size distribution by laser diffraction; type: physicochemical
Source text: When referred to herein, the term “optical diameter” indicates the size of a particle as measured by the Fraunhofer diffraction mode using a laser diffraction particle size analyzer equipped with a dry powder dispenser (e.g., Sympatec GmbH, Clasthal-Zellerfeld, Germany).
Suspending particles were manufactured by spray drying an emulsion of PFOB (perfluorooctyl bromide) and water stabilized by DSPC (1,2-Distearoyl-sn-Glycero-3-Phosphocholine). Detailed preparation procedures have been documented previously. The particle size distribution of the suspending particles was determined by laser diffraction.
Active agent particles formed of budesonide, 16,17-(butylidenebis(oxy))-11,21-dihydroxy-, (11-β,16-α)-pregna-1,4-diene-3,20-dione, were formed by micronizing budesonide using a jet mill. The particle size distribution of the budesonide (BD) was determined by laser diffraction.

[2] = Aerodynamic particle size distribution by NGI (FPF, FPD, MMAD) of HFC-152a co-suspension MDIs; type: physicochemical
Source text: (§1) In the context of a composition containing or providing respirable aggregates, particles, drops, etc., such as compositions described herein, the term “fine particle dose” or “FPD” refers to the dose, either in total mass or fraction of the nominal dose or metered dose, that is within a respirable range. The dose that is within the respirable range in measured in vitro to be the sum of the dose delivered at stages 3 through Micro Orifice Collector in a Next Generation Impactor operated at a flow rate of 30 l/min.
(§2) In the context of a composition containing or providing respirable aggregates, particles, drops, etc., such as compositions described herein, the term “fine particle fraction” or “FPF” refers to the proportion of the delivered material relative to the delivered dose (i.e. the amount that exits the actuator of a delivery device, such as an MDI) that is within a respirable range. The amount of delivered material within the respirable range is measured in vitro as the sum of the material delivered at stages 3 through Micro Orifice Collector in a Next Generation Impactor operated at a flow rate of 30 l/min.
The mixture is agitated to facilitate powder wetting and then transferred to a pressure vessel where the suspension is mixed. Valves comprised of 50 uL metering chambers (BK357, Bespak, King's Lynn, UK) are crimped onto fluorinated ethylene polymer (FEP) coated aluminum cans (Presspart, Blackburn, UK) and the suspension is then pressure filled through the valve.
Metered dose inhalers containing a triple co-suspension composition comprising glycopyrrolate, budesonide, and formoterol active agent particles were prepared, with each type of active agent particle being provided as a micronized, crystalline API material.

[3] = Aerodynamic particle size distribution by NGI after storage of the MDI (stability); type: physicochemical; conditions: active in BGF-152a
Source text: as §1, §2
The fine particle fraction (FPF) present in the delivered dose upon actuation of an MDI containing budesonide, formoterol, or glycopyrrolate active agent particles and phospholipid particles was measured following storage of the MDI under various temperature and relative humidity conditions for varied periods of time. […]

[4] = cited from earlier work; for Latent Heat @ Boiling Point: at boiling point
[5] = active in BGF-152a MDI, Example 2

COc1ccc(CC(C)NCC(O)c2ccc(O)c(NC=O)c2)cc1.O=C(O)/C=C/C(=O)O (racemic) [FF, (±)-2-hydroxy-5-[(1RS)-1-hydroxy-2-[[(1RS)-2-(4-methoxyphenyl)-1-methylethyl]-amino]ethyl]formanilide fumarate]
Optical diameter / size of 50% by volume of the particles (smaller than) [1]: smaller than 1.6 μm
Optical diameter / size of 90% by volume of the particles (smaller than) [1]: smaller than 3.9 μm

CC(C)(C)NCC(O)c1ccc(O)c(CO)c1 (stereo not drawn) [AB, α1 [(tert-butylamino)methyl]-4-hydroxy-m xylene-α,α′-diol sulfate]
Optical diameter / size of 50% by volume of the particles (smaller than) [1]: smaller than 1.5 μm
Optical diameter / size of 90% by volume of the particles (smaller than) [1]: smaller than 3.3 μm
FPD, <6.4 μm (μg/act) ([2]; active in BDA-152a MDI): 28.68 ± 0.61 μg/act
FPF, <6.4 μm (%) ([2]; active in BDA-152a MDI): 31 ± 1%
MMAD (μm) ([2]; active in BDA-152a MDI): 4.36 ± 0.06 μm

C[N+]1(C)CCC(OC(=O)C(O)(c2ccccc2)C2CCCC2)C1.[Br-] (centres unmarked) [GP, Pyrrolidinium, 3-((cyclopentylhydroxyphenylacetyl)oxy)-1,1-dimethyl-, bromide]
Optical diameter / size of 50% by volume of the particles (smaller than) [1]: smaller than 2.1 μm
Optical diameter / size of 90% by volume of the particles (smaller than) [1]: smaller than 5 μm
FPD, <6.4 μm (μg/act) [2, 5]: 3.69 ± 0.36 μg/act
FPF, <6.4 μm (%) [2, 5]: 49 ± 3%
FPD, <6.4 μm (μg/act) ([2]; active in GFF-152a MDI): 3.56 ± 0.18 μg/act
FPF, <6.4 μm (%) ([2]; active in GFF-152a MDI): 48 ± 1%
MMAD (μm) ([2]; active in GFF-152a MDI): 3.43 ± 0.07 μm
FPD, <6.4 μm (μg/act) ([3]; 1 month 25° C./60% RH): 3.02 ± 0.08 μg/act
FPF, <6.4 μm (%) ([3]; 1 month 25° C./60% RH): 45 ± 1%
FPD, <6.4 μm (μg/act) ([3]; 1 month 40° C./75% RH): 3.18 ± 0.15 μg/act
FPF, <6.4 μm (%) ([3]; 1 month 40° C./75% RH): 46 ± 1%
FPD, <6.4 μm (μg/act) ([3]; 3 month 25° C./60% RH): 3.42 ± 0.08 μg/act
FPF, <6.4 μm (%) ([3]; 3 month 25° C./60% RH): 49 ± 1%
FPD, <6.4 μm (μg/act) ([3]; 3 month 40° C./75% RH): 3.62 ± 0.08 μg/act
FPF, <6.4 μm (%) ([3]; 3 month 40° C./75% RH): 50 ± 1%
FPD, <6.4 μm (μg/act) ([3]; 6 month 25° C./60% RH): 3.50 ± 0.07 μg/act
FPF, <6.4 μm (%) ([3]; 6 month 25° C./60% RH): 50 ± 1%
FPD, <6.4 μm (μg/act) ([3]; 6 month 40° C./75% RH): 3.44 ± 0.27 μg/act
FPF, <6.4 μm (%) ([3]; 6 month 40° C./75% RH): 49 ± 2%
FPD, <6.4 μm (μg/act) ([3]; 12 month 25° C./60% RH): 3.46 ± 0.05 μg/act
FPF, <6.4 μm (%) ([3]; 12 month 25° C./60% RH): 48 ± 2%
FPD, <6.4 μm (μg/act) ([3]; Initial): 3.18 ± 0.16 μg/act
FPF, <6.4 μm (%) ([3]; Initial): 47 ± 2%

FCC(F)(F)F [HFA-134a, 1,1,1,2-tetrafluoroethane]
Liquid Density @ 20° C. [4]: 1.23 g/mL
Liquid Viscosity @ 20° C. [4]: 0.211 mPa · S
Surface Tension @ 20° C. [4]: 8.09 mN/m
Vapor Pressure @ 20° C. [4]: 570 kPa
Latent Heat @ 25° C. [4]: 177.7 kJ/kg
Water Solubility in Propellant ([4]; @25): 1100@25 ppm
Latent Heat @ Boiling Point [4]: 216.7 kJ/kg

FC(C(F)(F)F)C(F)(F)F [HFA-227ea, 1,1,1,2,3,3,3-Heptafluoropropane]
Liquid Density @ 20° C. [4]: 1.41 g/mL
Liquid Viscosity @ 20° C. [4]: 0.267 mPa · S
Surface Tension @ 20° C. [4]: 7.50 mN/m
Vapor Pressure @ 20° C. [4]: 390 kPa
Latent Heat @ 25° C. [4]: 110.97 kJ/kg
Water Solubility in Propellant ([4]; @25): 610@25 ppm
Latent Heat @ Boiling Point [4]: 131.4 kJ/kg

CC(F)F [HFC-152a, 1,1-Difluoroethane]
Liquid Density @ 20° C. [4]: 0.91 g/mL
Liquid Viscosity @ 20° C. [4]: 0.171 mPa · S
Surface Tension @ 20° C. [4]: 10.4 mN/m
Vapor Pressure @ 20° C. [4]: 510 kPa
Latent Heat @ 25° C. [4]: 279.1 kJ/kg
Water Solubility in Propellant ([4]; @25): 2100@25 ppm
Latent Heat @ Boiling Point [4]: 318.4 kJ/kg

C=C(F)C(F)(F)F [HFO-1234yf, 2,3,3,3-Tetrafluoropropene]
Liquid Density @ 20° C. [4]: 1.11 g/mL
Liquid Viscosity @ 20° C. [4]: 0.164 mPa · S
Surface Tension @ 20° C. [4]: 6.8 mN/m
Vapor Pressure @ 20° C. [4]: 592 kPa
Latent Heat @ 25° C. [4]: 145.4 kJ/kg
Water Solubility in Propellant ([4]; @24): 200@24 ppm
Latent Heat @ Boiling Point [4]: 180.5 kJ/kg

FC=CC(F)(F)F [HFO-1234ze]
Liquid Density @ 20° C. [4]: 1.18 g/mL
Liquid Viscosity @ 20° C. [4]: 0.206 mPa · S
Surface Tension @ 20° C. [4]: 8.9 mN/m
Vapor Pressure @ 20° C. [4]: 427 kPa
Latent Heat @ 25° C. [4]: 166.8 kJ/kg
Water Solubility in Propellant ([4]; @20): 225@20 ppm
Latent Heat @ Boiling Point [4]: 195.43 kJ/kg
